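Step 1: Grow cells in 96-well plates. Step 2: Expose to compound for 48 hours at 5 concentrations. Step 3: Interpolate endpoints linearly; if unreached, use highest concentration. GI50 is the concentration that inhibits growth by half. TGI marks complete inhibition of growth.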
Experiments:
Test in all cases: NCI anticancer screen, dose series, 48 h
[1] = system: MCF7 breast
[2] = system: NCI/ADR-RES ovarian
[3] = system: M14 melanoma
[4] = system: NCI-H23 lung
[5] = system: COLO 205 colon
[6] = system: RPMI-8226 leukemia
[7] = system: HS 578T breast
[8] = system: OVCAR-5 ovarian
[9] = system: OVCAR-4 ovarian
[10] = system: IGROV1 ovarian
[11] = system: A498 renal
[12] = system: BT-549 breast
[13] = system: HT29 colon
[14] = system: MDA-MB-435
[15] = system: HCT-15 colon
[16] = system: UACC-62 melanoma
[17] = system: SF-295 CNS
[18] = system: 786-0 renal
[19] = system: CCRF-CEM leukemia
[20] = system: SN12C renal
[21] = system: EKVX NSCLC
[22] = system: SW-620 colon
[23] = system: SR leukemia
[24] = system: SK-MEL-28 melanoma
[25] = system: MALME-3M melanoma
[26] = system: LOX IMVI melanoma
[27] = system: HCC-2998 colon
[28] = system: MOLT-4 leukemia
[29] = system: NCI-H522 lung
[30] = system: DU-145 prostate
[31] = system: HOP-92 NSCLC
[32] = system: SNB-75 CNS
[33] = system: SK-MEL-5 melanoma
[34] = system: U251 CNS
[35] = system: SK-MEL-2 melanoma
[36] = system: CAKI-1 renal
[37] = system: RXF 393 renal
[38] = system: OVCAR-8 ovarian
[39] = system: HL-60(TB) leukemia
[40] = system: A549 NSCLC
[41] = system: MDA-MB-231 breast
[42] = system: KM12 colon
[43] = system: NCI-H226 lung
[44] = system: ACHN renal
[45] = system: TK-10 renal
[46] = system: NCI-H460 lung
[47] = system: HOP-62 NSCLC
[48] = system: SK-OV-3 ovarian
[49] = system: PC-3 prostate
[50] = system: T-47D breast
[51] = system: UACC-257 melanoma
[52] = system: HCT-116 colon
[53] = system: UO-31 renal
[54] = system: SNB-19 CNS
[55] = system: K-562 leukemia
[56] = system: OVCAR-3 ovarian
[57] = system: SF-539 CNS
[58] = system: SF-268 CNS

With Cc1ccc(O)cc1Nc1ccnc2ccc(S(C)(=O)=O)cc12 as the compound, how does the GI50 [1] read?
Its GI50 is > 25 µM.

What about the TGI [1] of the same compound?
The TGI was > 25 µM.

What about the GI50 [2] of the same compound?
Its GI50 is 15.9 µM.

And the TGI [2]?
Its TGI is > 25 µM.

And the GI50 [3]?
The GI50 was 0.939 µM.

And the TGI [3]?
The TGI was > 21.8 µM.

What about the GI50 [4] of the same compound?
The GI50 was 5.97 µM.

And the TGI [4]?
Its TGI is > 25 µM.

What about the GI50 [5] of the same compound?
Its GI50 is 0.47 µM.

What about the TGI [5] of the same compound?
The TGI was 2.83 µM.

And the GI50 [6]?
Its GI50 is > 25 µM.

What about the TGI [6] of the same compound?
Its TGI is > 25 µM.

What about the GI50 [7] of the same compound?
Its GI50 is 0.42 µM.

And the TGI [7]?
The TGI was 4.25 µM.

And the GI50 [8]?
Its GI50 is 1.41 µM.

What about the TGI [8] of the same compound?
The TGI was 14.5 µM.

And the GI50 [9]?
The GI50 was > 25 µM.

What about the TGI [9] of the same compound?
The TGI was > 25 µM.

And the GI50 [10]?
The GI50 was 0.478 µM.

What about the TGI [10] of the same compound?
The TGI was 2.12 µM.

And the GI50 [11]?
The GI50 was 1.75 µM.

What about the TGI [11] of the same compound?
The TGI was 6.18 µM.

What about the GI50 [12] of the same compound?
The GI50 was 5.06 µM.

What about the TGI [12] of the same compound?
Its TGI is 17.8 µM.

What about the GI50 [13] of the same compound?
The GI50 was 0.433 µM.

What about the TGI [13] of the same compound?
Its TGI is 2.92 µM.

What about the GI50 [14] of the same compound?
Its GI50 is 4.92 µM.

What about the TGI [14] of the same compound?
The TGI was > 25 µM.

And the GI50 [15]?
The GI50 was 11.4 µM.

What about the TGI [15] of the same compound?
Its TGI is > 25 µM.

And the GI50 [16]?
The GI50 was 0.843 µM.

What about the TGI [16] of the same compound?
Its TGI is 10.4 µM.

What about the GI50 [17] of the same compound?
Its GI50 is 3.34 µM.

What about the TGI [17] of the same compound?
Its TGI is > 25 µM.

And the GI50 [18]?
The GI50 was 1.87 µM.

What about the TGI [18] of the same compound?
The TGI was > 25 µM.

And the GI50 [19]?
Its GI50 is > 25 µM.

What about the TGI [19] of the same compound?
The TGI was > 25 µM.

And the GI50 [20]?
The GI50 was 2.82 µM.

What about the TGI [20] of the same compound?
The TGI was > 25 µM.

And the GI50 [21]?
The GI50 was 11.9 µM.

What about the TGI [21] of the same compound?
Its TGI is > 25 µM.

What about the GI50 [22] of the same compound?
Its GI50 is 15.2 µM.

What about the TGI [22] of the same compound?
The TGI was > 25 µM.

What about the GI50 [23] of the same compound?
The GI50 was > 25 µM.

And the TGI [23]?
Its TGI is > 25 µM.

And the GI50 [24]?
Its GI50 is 1.98 µM.

What about the TGI [24] of the same compound?
Its TGI is > 25 µM.

What about the GI50 [25] of the same compound?
Its GI50 is 0.892 µM.

What about the TGI [25] of the same compound?
The TGI was 9.35 µM.

And the GI50 [26]?
Its GI50 is 0.516 µM.

And the TGI [26]?
Its TGI is 3.89 µM.

And the GI50 [27]?
Its GI50 is 10 µM.

What about the TGI [27] of the same compound?
The TGI was > 25 µM.

And the GI50 [28]?
Its GI50 is > 19.8 µM.

And the TGI [28]?
The TGI was > 25 µM.

And the GI50 [29]?
Its GI50 is 5.08 µM.

What about the TGI [29] of the same compound?
Its TGI is > 22.1 µM.

And the GI50 [30]?
Its GI50 is 7.23 µM.

And the TGI [30]?
The TGI was > 20.4 µM.

And the GI50 [31]?
Its GI50 is 0.0327 µM.

And the TGI [31]?
The TGI was 0.245 µM.

What about the GI50 [32] of the same compound?
The GI50 was 0.106 µM.

And the TGI [32]?
Its TGI is 1.28 µM.

And the GI50 [33]?
Its GI50 is 10.4 µM.

What about the TGI [33] of the same compound?
Its TGI is > 25 µM.

What about the GI50 [34] of the same compound?
Its GI50 is 5.22 µM.

And the TGI [34]?
Its TGI is > 25 µM.

What about the GI50 [35] of the same compound?
Its GI50 is 6.91 µM.

And the TGI [35]?
Its TGI is 24.9 µM.

And the GI50 [36]?
Its GI50 is 0.74 µM.

And the TGI [36]?
Its TGI is 5.12 µM.

What about the GI50 [37] of the same compound?
Its GI50 is 0.381 µM.

What about the TGI [37] of the same compound?
The TGI was 1.99 µM.

And the GI50 [38]?
Its GI50 is 3.53 µM.

And the TGI [38]?
The TGI was 16.4 µM.

What about the GI50 [39] of the same compound?
Its GI50 is 10.2 µM.

What about the TGI [39] of the same compound?
Its TGI is > 25 µM.

What about the GI50 [40] of the same compound?
The GI50 was 2.76 µM.

And the TGI [40]?
The TGI was > 25 µM.

And the GI50 [41]?
The GI50 was 0.507 µM.

What about the TGI [41] of the same compound?
Its TGI is 4.68 µM.

And the GI50 [42]?
Its GI50 is > 25 µM.

And the TGI [42]?
Its TGI is > 25 µM.

What about the GI50 [43] of the same compound?
The GI50 was 5.05 µM.

What about the TGI [43] of the same compound?
Its TGI is > 23.6 µM.

What about the GI50 [44] of the same compound?
Its GI50 is 0.612 µM.

And the TGI [44]?
The TGI was 7.75 µM.

And the GI50 [45]?
Its GI50 is 0.484 µM.

What about the TGI [45] of the same compound?
The TGI was 2.23 µM.

What about the GI50 [46] of the same compound?
Its GI50 is 10.5 µM.

And the TGI [46]?
Its TGI is > 25 µM.

And the GI50 [47]?
The GI50 was 2.35 µM.

What about the TGI [47] of the same compound?
Its TGI is > 25 µM.

And the GI50 [48]?
The GI50 was 3.22 µM.

What about the TGI [48] of the same compound?
Its TGI is > 25 µM.

What about the GI50 [49] of the same compound?
The GI50 was 4.2 µM.

And the TGI [49]?
The TGI was > 25 µM.

And the GI50 [50]?
The GI50 was 1.59 µM.

And the TGI [50]?
The TGI was 24.3 µM.

And the GI50 [51]?
Its GI50 is 0.957 µM.

What about the TGI [51] of the same compound?
The TGI was > 25 µM.

And the GI50 [52]?
The GI50 was 3.53 µM.

And the TGI [52]?
The TGI was > 25 µM.

What about the GI50 [53] of the same compound?
Its GI50 is 0.496 µM.

And the TGI [53]?
Its TGI is 4.81 µM.

What about the GI50 [54] of the same compound?
The GI50 was 7.66 µM.

And the TGI [54]?
The TGI was > 25 µM.

And the GI50 [55]?
The GI50 was 0.161 µM.

And the TGI [55]?
Its TGI is > 25 µM.

What about the GI50 [56] of the same compound?
The GI50 was 4.82 µM.

And the TGI [56]?
Its TGI is > 22.8 µM.

And the GI50 [57]?
The GI50 was 1.08 µM.

And the TGI [57]?
The TGI was 7.62 µM.

What about the GI50 [58] of the same compound?
Its GI50 is 2.67 µM.

And the TGI [58]?
Its TGI is > 25 µM.

Reference: PubChem BioAssay (NCI)
